Results from ChEMBL document CHEMBL1201862, “PubChem BioAssay data set” (2004).
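Five concentrations, 48 hours, 96-well plates. At the GI50, growth is halved.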 Calls of active or inactive are those of the source. Rule as the data show it: active = GI50 up to about 1.1 µM and inactive = higher.

Tests used:
Test in all cases: NCI anticancer screen, dose series, 48 h
[1] = system: 786-0
[2] = system: ACHN
[3] = system: BT-549
[4] = system: COLO 205
[5] = system: MCF7
[6] = system: NCI/ADR-RES
[7] = system: OVCAR-8
[8] = system: RPMI-8226
[9] = system: SF-268
[10] = system: SF-295
[11] = system: SF-539
[12] = system: SK-MEL-28
[13] = system: SK-OV-3
[14] = system: SNB-19
[15] = system: SR
[16] = system: TK-10
[17] = system: UO-31
[18] = system: KM12
[19] = system: NCI-H460

Measured: GI50

Cc1ccccc1/N=C/N(C)C
inactive: [1] 70.3 µM | [2] 41.8 µM | [3] 85.7 µM | [4] 39.6 µM | [5] 31.5 µM | [6] > 100 µM | [7] 33.9 µM | [8] 13.3 µM | [9] 57.4 µM | [10] 39.5 µM | [11] 61.8 µM | [12] 75.3 µM | [13] > 100 µM | [14] 56.8 µM | [15] 11.4 µM | [16] 54.6 µM | [17] 74.6 µM

c1ccc(/N=C(/Nc2ccccc2)N2CCCCC2)cc1
inactive: [1] > 100 µM | [2] > 100 µM | [3] > 100 µM | [4] 59 µM | [18] 72.1 µM | [5] 68.7 µM | [19] 73.3 µM | [6] > 100 µM | [7] > 100 µM | [8] 97.9 µM | [9] > 100 µM | [10] 54.7 µM | [12] 74 µM | [13] 74.1 µM | [14] > 100 µM | [15] 73.6 µM | [16] > 100 µM | [17] 49.3 µM

Cc1ccc(NC(=O)c2ccccc2C(=O)O)cc1C
inactive: [1] > 100 µM | [2] > 100 µM | [3] > 100 µM | [4] > 100 µM | [18] > 100 µM | [5] > 100 µM | [19] > 100 µM | [6] > 100 µM | [7] > 100 µM | [8] > 100 µM | [9] > 100 µM | [10] > 100 µM | [11] > 100 µM | [12] > 100 µM | [13] > 100 µM | [14] > 100 µM | [15] > 100 µM | [16] > 100 µM

COC(=O)C1OC(SCCN)C(O)C(O)C1O (configuration not stated)
inactive: [1] > 100 µM | [2] > 100 µM | [3] > 100 µM | [4] > 100 µM | [18] > 100 µM | [5] > 100 µM | [19] > 100 µM | [6] > 100 µM | [7] > 100 µM | [8] > 100 µM | [9] > 100 µM | [10] > 100 µM | [11] > 100 µM | [12] > 100 µM | [13] > 100 µM | [14] > 100 µM | [15] > 100 µM | [16] > 100 µM

CC1(C)SC2C(NC(=O)Cc3ccccc3)C(=O)N2C1C(=O)O (configuration not stated)
inactive: [1] > 100 µM | [2] > 100 µM | [3] > 100 µM | [4] 65.6 µM | [18] > 100 µM | [5] > 100 µM | [19] > 100 µM | [6] > 100 µM | [7] > 100 µM | [9] > 100 µM | [10] > 100 µM | [11] > 100 µM | [12] > 100 µM | [13] > 100 µM | [14] > 100 µM | [15] > 100 µM | [16] > 100 µM | [17] > 100 µM

CCOC1Oc2ccccc2-c2nc(SC)ncc21 (configuration not stated)
inactive: [1] > 100 µM | [2] > 100 µM | [3] 78 µM | [4] > 100 µM | [18] > 100 µM | [5] 66.1 µM | [19] 55.6 µM | [6] 82.8 µM | [7] > 100 µM | [8] 70 µM | [9] > 100 µM | [10] > 100 µM | [11] > 100 µM | [13] > 100 µM | [14] > 100 µM | [15] 87.1 µM | [16] 68.4 µM | [17] 51.3 µM
